From patent US20210024507A1, “Compounds” (Step Pharma S.A.S., priority 2018, published 2021)
Each block holds one molecule with its values, some of them ahead of it.

Columns and labels:
human CTPS1 [1] = target: T1, human CTPS1 (Homo sapiens, UniProt P17812); test: Human CTPS1 enzyme inhibition (ADP-Glo Max assay); assay type: biochemical; details: human full length CTPS1, 25° C., read-out: CTPS1 (Human CTPS1 Enzyme Inhibition, IC50 grouped by potency range)
T1 construct: purchased Proteros biostructures GmbH
T1 sequence (P17812 1-591): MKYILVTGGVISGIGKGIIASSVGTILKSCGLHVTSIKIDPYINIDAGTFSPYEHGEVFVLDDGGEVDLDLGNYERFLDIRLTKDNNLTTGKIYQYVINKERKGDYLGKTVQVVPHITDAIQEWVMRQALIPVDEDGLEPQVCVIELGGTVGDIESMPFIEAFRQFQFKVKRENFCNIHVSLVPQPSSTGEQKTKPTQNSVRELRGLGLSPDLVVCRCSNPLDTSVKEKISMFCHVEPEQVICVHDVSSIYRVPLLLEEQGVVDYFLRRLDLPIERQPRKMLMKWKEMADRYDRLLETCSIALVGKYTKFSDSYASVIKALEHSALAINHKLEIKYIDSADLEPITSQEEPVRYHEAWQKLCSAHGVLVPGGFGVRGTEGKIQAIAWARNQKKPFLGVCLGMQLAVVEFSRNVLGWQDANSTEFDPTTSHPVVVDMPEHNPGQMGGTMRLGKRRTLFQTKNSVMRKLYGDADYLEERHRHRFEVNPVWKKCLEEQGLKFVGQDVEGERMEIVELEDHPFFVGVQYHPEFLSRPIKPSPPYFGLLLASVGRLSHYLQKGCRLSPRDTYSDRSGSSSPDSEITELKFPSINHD
Experimental: The enzyme inhibitory activities of compounds invented against the target of interest were determined using the ADP-GIoTM Max assay (Promega, UK). Assays for human CTPS1 were performed in lx assay buffer containing 50mM Tris, 10mM MgCl2, 0.01% Tween-20, pH to 8.0 accordingly. Finally, immediately before use, L-cysteine was added to the lx assay buffer to a final concentration of 2mM. All reagents are from Sigma-Aldrich unless specified otherwise. Human full length active C-terminal FLAG-Hiss-tag CTPS1 (UniProtKB - P17812, CTPS[1-591]-[…]) was obtained from Proteros biostructures GmbH.
Assay Procedure 3× human CTPS1 protein was prepared in lx assay buffer to the final working protein concentration required for the reaction. A 2uL volume per well of 3x human CTPS1 protein was mixed with 2uL per well of 3× test compound (compound prepared in lx assay buffer to an appropriate final 3× compound concentration respective to the concentration response curve designed for the compounds under test) for 10 minutes at 25° C. The enzymatic reaction was then initiated by addition of a 2uL per well volume of a pre-mixed substrate mix (UltraPure ATP from ADP-GIo™ Max kit (0.31mM), GTP (0.034mM), UTP (0.48mM) and L-glutamine (0.186mM)) and the mixture was incubated for an appropriate amount of time within the determined linear phase of the reaction at 25° C. under sealed plate conditions with constant agitation at 500 revolutions per minute (rpm). ADP-GIo™ Max reagent was added for 60 minutes ([…] per well) and subsequently ADP-GIo™ Max development reagent was added for 60 minutes (12uL per well) prior to signal detection in a microplate reader (EnVision® Multilabel Reader, Perkin Elmer). Following each reagent addition over the course of the assay, assay plates were pulse centrifuged for 30 seconds at 500rpm.
In all cases, the enzyme converts ATP to ADP and the ADP-GIo™ Max reagent subsequently depletes any remaining endogenous ATP in the reaction system. The ADP-GIo™ Max detection reagent converts the ADP that has been enzymatically produced back into ATP and using ATP as a substrate together with luciferin for the enzyme luciferase, light is generated which produces a detectable luminescence. […] The percentage inhibition produced by each concentration of compound was calculated using the equation shown below: […]
(§1) Percentage inhibition was then plotted against compound concentration, and the 50% inhibitory concentration (IC50) was determined from the resultant concentration-response curve.

human CTPS1 [2] = test: RapidFire/MS-based enzyme selectivity assay, human CTPS1; assay type: biochemical; details: calculated from the CTPS1 and CTPS2 IC50 values
Experimental: The enzyme inhibitory activities against each target isoform of interest may be determined for the compounds of the invention using an optimised RapidFire high-throughput mass spectrometry (RF/MS) assay format. RF/MS assays for both human CTPS1 and CTPS2 may be performed in assay buffer consisting of 50mM HEPES (Merck), 20mM MgCl2, 5mM KCI, 1mM DTT, 0.01% Tween-20, pH to 8.0 accordingly. Human full-length active C-terminal FLAG-His-tag CTPS1 (UniProtKB - P17812, CTPS[1-591]-[…]) may be obtained from Proteros biostructures GmbH. Human full length active C-terminal FLAG-His-Avi tagged CTPS2 (UniProtKB-Q9NRF8, CTPS2 [1-586]- […]) may be obtained from Harker Bio.
Human CTPS (1 or 2) protein may be prepared in lx assay buffer to the final working protein concentration required for the reaction. A 2uL volume per well of 2× CTPS (1 or 2) protein may be mixed with 40nL of compound using acoustic (ECHO) delivery and incubated for 10 minutes at 25° C. Each isoform enzymatic reaction may be subsequently initiated by addition of 2uL per well of a 2× substrate mix in assay buffer. For hCTPS1: ATP (0.3mM), UTP (0.2mM), GTP (0.07mM) and L-glutamine (0.1mM). For hCTPS2: ATP (0.1mM), UTP (0.04mM), GTP (0.03mM) and L-glutamine (0.1mM). Each mixture may be incubated for an appropriate amount of time per isoform within the determined linear phase of the reaction at 25° C. A 60uL volume of stop solution (1% formic acid with 0.5uM ^13C9-^15N3-CTP in H2O) may be added and the plate immediately heat-sealed and centrifuged for 10 minutes at 4,000rpm. Following centrifugation, plates may be loaded onto the Agilent RapidFire microfluidic solid phase extraction system coupled to an AP14000 triple quadrupole mass spectrometer (RF/MS) for analysis.
In all cases, the enzyme converts UTP to CTP. Highly specific and sensitive multiple reaction monitoring (MRM) MS methods may be optimised for the detection of the enzymatic reaction product, CTP, and the stable isotope labelled product standard ^13C9-^15N3-CTP. Readout for data analysis may be calculated as the ratio between the peak area of the product CTP and the internal standard ^13C9-^15N3-CTP. For data reporting, the following equation may be used:
[formula] (R=ratio/readout, P=product signal area, IS=internal standard signal area)
For each screening plate, the means of the negative (DMSO) and positive control values were used for the calculation of the respective assay window (S/B) and Z′ values. The median of the respective control values was used for calculation of percent inhibition according to the following equation:
[formula] (I=Inhibition, Rneg=median of negative control readout values, Rpos=median of positive control readout values, Rsample=sample readout value)
as §1
Fold selectivity between CTPS1 and CTPS2 was subsequently calculated according to the following equation: […]

SMILES: CCOc1cncc(-c2ccc(NC(=O)C(F)(CC)c3ccnc(NS(=O)(=O)C4CC4)n3)nc2)n1 (racemic) [P112, 2-(2-(Cyclopropanesulfonamido)pyrimidin-4-yl)-N-(5-(6-ethoxypyrazin-2-yl)pyridin-2-yl)-2-fluorobutanamide]
IC50 (human CTPS1 [1]): ≤ 100 nM
Selectivity (fold selectivity between CTPS1 and CTPS2) (human CTPS1 [2]): ++ (>30-60 fold (++))

SMILES: CCOc1cncc(-c2ccc(NC(=O)C(F)(CC)c3ccnc(NS(=O)(=O)C4CC4)n3)nc2)n1 (single isomer, unassigned) [P113, 2-(2-(cyclopropanesulfonamido)pyrimidin-4-yl)-N-(5-(6-ethoxypyrazin-2-yl)pyridin-2-yl)-2-fluorobutanamide]
IC50 (human CTPS1 [1]): ≤ 100 nM
Selectivity (fold selectivity between CTPS1 and CTPS2) (human CTPS1 [2]): + (2-30 fold (+))

SMILES: CCOc1cncc(-c2ccc(NC(=O)C(F)(CC)c3ccnc(NS(=O)(=O)C4CC4)n3)nc2)n1 (single isomer, unassigned) [P114, 2-(2-(cyclopropanesulfonamido)pyrimidin-4-yl)-N-(5-(6-ethoxypyrazin-2-yl)pyridin-2-yl)-2-fluorobutanamide]
IC50 (human CTPS1 [1]): ≤ 100 nM
Selectivity (fold selectivity between CTPS1 and CTPS2) (human CTPS1 [2]): +++ (>60 fold (+++))

SMILES: CCOc1cncc(-c2ccc(NC(=O)C(F)(CC)c3cncc(NS(=O)(=O)C4CC4)n3)nc2)n1 (single isomer, unassigned) [P206, 2-(6-(cyclopropanesulfonamido)pyrazin-2-yl)-N-(5-(6-ethoxypyrazin-2-yl)pyridin-2-yl)-2-fluorobutanamide]
IC50 (human CTPS1 [1]): ≤ 100 nM
Selectivity (fold selectivity between CTPS1 and CTPS2) (human CTPS1 [2]): +++ (>60 fold (+++))

SMILES: CCOc1cncc(-c2ccc(NC(=O)C(F)(CC)c3cncc(NS(=O)(=O)C4CC4)n3)nc2)n1 (single isomer, unassigned) [P207, 2-(6-(cyclopropanesulfonamido)pyrazin-2-yl)-N-(5-(6-ethoxypyrazin-2-yl)pyridin-2-yl)-2-fluorobutanamide]
IC50 (human CTPS1 [1]): ≤ 100 nM
Selectivity (fold selectivity between CTPS1 and CTPS2) (human CTPS1 [2]): + (2-30 fold (+))

SMILES: CCC(C(=O)Nc1ccc(-c2cncc(C(F)(F)F)n2)cn1)c1ccnc(NS(=O)(=O)C2CC2)n1 (centres unmarked) [P87, 2-(2-(cyclopropanesulfonamido)pyrimidin-4-yl)-N-(5-(6-(trifluoromethyl)pyrazin-2-yl)pyridin-2-yl)butanamide]
IC50 (human CTPS1 [1]): ≤ 100 nM
Selectivity (fold selectivity between CTPS1 and CTPS2) (human CTPS1 [2]): ++ (>30-60 fold (++))

SMILES: CCC(C(=O)Nc1ccc(-c2cncc(OC(C)C)n2)cn1)c1ccnc(NS(=O)(=O)C2CC2)n1 (centres unmarked) [P89, 2-(2-(cyclopropanesulfonamido)pyrimidin-4-yl)-N-(5-(6-isopropoxypyrazin-2-yl)pyridin-2-yl)butanamide]
IC50 (human CTPS1 [1]): ≤ 100 nM
Selectivity (fold selectivity between CTPS1 and CTPS2) (human CTPS1 [2]): +++ (>60 fold (+++))

SMILES: CCC(C(=O)Nc1ccc(-c2cncc(OCC(F)(F)F)n2)cc1F)c1ccnc(NS(=O)(=O)C2CC2)n1 (centres unmarked) [P98, 2-(2-(cyclopropanesulfonamido)pyrimidin-4-yl)-N-(2-fluoro-4-(6-(2,2,2-trifluoroethoxy)pyrazin-2-yl)phenyl)butanamide]
IC50 (human CTPS1 [1]): ≤ 100 nM
Selectivity (fold selectivity between CTPS1 and CTPS2) (human CTPS1 [2]): +++ (>60 fold (+++))

SMILES: CC(C)(NC(=O)c1ccc(-c2cncc(C(F)(F)F)n2)cc1)c1cncc(NS(=O)(=O)C2CC2)n1 [P222, N-(2-(6-(cyclopropanesulfonamido)pyrazin-2-yl)propan-2-yl)-4-(6-(trifluoromethyl)pyrazin-2-yl)benzamide]
Selectivity (fold selectivity between CTPS1 and CTPS2) (human CTPS1 [2]): + (2-30 fold (+))

The next lines start with the values.

IC50 (human CTPS1 [1]): 100 to 1000 nM
Selectivity (fold selectivity between CTPS1 and CTPS2) (human CTPS1 [2]): + (2-30 fold (+))
SMILES: CCC(C(=O)Nc1ccc(-c2cncc(Cl)c2)cc1)c1ccnc(NS(=O)(=O)C2CC2)n1 (centres unmarked) [P1, N-(4-(5-Chloropyridin-3-yl)phenyI)-2-(2-(cyclopropanesulfonamido)pyrimidin-4-yl)butanamide]

IC50 (human CTPS1 [1]): ≤ 100 nM
Selectivity (fold selectivity between CTPS1 and CTPS2) (human CTPS1 [2]): +++ (>60 fold (+++))
SMILES: CCOc1cncc(-c2ccc(NC(=O)C(CC)c3ccnc(NS(=O)(=O)C4CC4)n3)nc2)n1 (centres unmarked) [P88, 2-(2-(cyclopropanesulfonamido)pyrimidin-4-yl)-N-(5-(6-ethoxypyrazin-2-yl)pyridin-2-yl)butanamide]

IC50 (human CTPS1 [1]): ≤ 100 nM
Selectivity (fold selectivity between CTPS1 and CTPS2) (human CTPS1 [2]): + (2-30 fold (+))
SMILES: CCC(C(=O)Nc1ccc(-c2cncc(OC)n2)cc1F)c1ccnc(NS(=O)(=O)C2CC2)n1 (centres unmarked) [P95, 2-(2-(cyclopropanesulfonamido)pyrimidin-4-yl)-N-(2-fluoro-4-(6-methoxypyrazin-2-yl)phenyl)butanamide]

IC50 (human CTPS1 [1]): ≤ 100 nM
Selectivity (fold selectivity between CTPS1 and CTPS2) (human CTPS1 [2]): + (2-30 fold (+))
SMILES: CCOc1cncc(-c2ccc(NC(=O)C(CC)c3ccnc(NS(=O)(=O)C4CC4)n3)c(F)c2)n1 (centres unmarked) [P96, 2-(2-(cyclopropanesulfonamido)pyrimidin-4-yl)-N-(4-(6-ethoxypyrazin-2-yl)-2-fluorophenyl)butanamide]

IC50 (human CTPS1 [1]): 100 to 1000 nM
Selectivity (fold selectivity between CTPS1 and CTPS2) (human CTPS1 [2]): + (2-30 fold (+))
SMILES: CCC(C(=O)Nc1ccc(-c2cncc(C(F)(F)F)n2)cc1)c1ccnc(NS(=O)(=O)C2CC2)n1 (centres unmarked) [P103, 2-(2-(cyclopropanesulfonamido)pyrimidin-4-yl)-N-(4-(6-(trifluoromethyl)pyrazin-2-yl)phenyl)butanamide]

IC50 (human CTPS1 [1]): ≤ 100 nM
Selectivity (fold selectivity between CTPS1 and CTPS2) (human CTPS1 [2]): ++ (>30-60 fold (++))
SMILES: CCOc1cncc(-c2ccc(NC(=O)C(CC)c3ccnc(NS(=O)(=O)C4CC4)n3)cc2)n1 (centres unmarked) [P105, 2-(2-(cyclopropanesulfonamido)pyrimidin-4-yl)-N-(4-(6-ethoxypyrazin-2-yl)phenyl)butanamide]
